Measured values from ChEMBL document CHEMBL3044656, “Influence of soil fumigation on 2,4-D and dicamba carryover in fresh market tomato” (Crop Prot, 2006).

What was measured:
Solanum lycopersicum [1] = assay: Phytotoxicity in Solanum lycopersicum (tomato) plant in fumigated soil assessed as plant vigour at 2.28 kg/ha after 134 days (reference value: 82%); type: organism-based; conditions: in vivo, other, 3216 h
Solanum lycopersicum [2] = assay: Phytotoxicity in Solanum lycopersicum (tomato) plant in non-fumigated soil assessed as decrease in total fruit yield at 1.14 to 2.28 kg/ha after 174 days relative to untreated control; type: organism-based; parameters: scale not given: the % may be the effect or the level left; conditions: in vivo, other, 4176 h
Solanum lycopersicum [3] = assay: Phytotoxicity in Solanum lycopersicum (tomato) plant assessed as plant vigour at 1.14 kg/ha after 134 days (reference value: 82%); type: organism-based; conditions: in vivo, 3216 h
[4] = Half life of the compound

Compound	Activity (Solanum lycopersicum [1])	Activity (Solanum lycopersicum [2])	Activity (Solanum lycopersicum [3])	half-life [4]
O=C(O)COc1ccc(Cl)cc1Cl [2,4-DICHLOROPHENOXYACETIC ACID]	80%	9%	83%	10 days
COc1c(Cl)ccc(Cl)c1C(=O)O [3,6 DICHLOROMETHOXYBENZOIC ACID]	–	–	–	14 days
